# System: CAL-120
# Assay: normalised response (% of control), CellTiter-Glo; higher = more viable cells (100 = DMSO, 0 = benzethonium chloride kill control)
# Conditions: incubation time: 72 h
# Outline: (§1)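 A 20 µl suspension of breast cancer cells was seeded into each well of 384-well plates containing compound at 5 concentrations in 10-fold steps over a compound-specific 10,000-fold range. After 72 h incubation, CellTox Green fluorescence (485/520 nm) was read first, and CellTiter-Glo luminescence was read after 10 min at room temperature. Each plate was normalised against 0.1 % DMSO (100) and a positive kill control (0), and each value is the normalised signal at one concentration.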
row,SMILES,normalised response
1,CCCc1cc(C)[nH]c(=O)c1CNC(=O)c1cc(-c2ccnc(N3CCN(C)CC3)c2)cc2c1cnn2C(C)C [GSK343] (1 nM),95.5%
2,CCCc1cc(C)[nH]c(=O)c1CNC(=O)c1cc(-c2ccnc(N3CCN(C)CC3)c2)cc2c1cnn2C(C)C [GSK343] (10 nM),97%
3,NC(=O)NO [Hydroxyurea] (100 nM),97.8%
4,COc1cc2c(cc1-c1c(C)noc1C)ncc1[nH]c(=O)n([C@H](C)c3ccccn3)c12 [I-BET151] (1 nM),101%
5,CC(C)n1nc(-c2ccc3oc(N)nc3c2)c2c(N)ncnc21 [INK128] (0.1 nM),91%
6,CC(C)n1nc(-c2ccc3oc(N)nc3c2)c2c(N)ncnc21 [INK128] (1 nM),92.2%
7,O=NN(CCCl)C(=O)NC1CCCCC1 [Lomustine] (10 nM),98.3%
8,O=C(O)CC[C@H]1CC[C@@](c2cc(F)ccc2F)(S(=O)(=O)c2ccc(Cl)cc2)CC1 [MK-0752] (1 nM),102%
9,NC1(c2ccc(-c3nc4ccn5c(=O)[nH]nc5c4cc3-c3ccccc3)cc2)CCC1 [MK-2206] (1 nM),99.2%
10,NC(=O)c1cccc2cn(-c3ccc([C@@H]4CCCNC4)cc3)nc12 [MK-4827] (10 nM),107%
11,N[C@@H](Cc1ccc(N(CCCl)CCCl)cc1)C(=O)O [Melphalan] (1.25 nM),100%
12,N[C@@H](Cc1ccc(N(CCCl)CCCl)cc1)C(=O)O [Melphalan] (12.5 nM),101%
13,O=C(c1cc(Cc2n[nH]c(=O)c3ccccc23)ccc1F)N1CCN(C(=O)C2CC2)CC1 [Olaparib] (10 nM),93.2%

# System: SK-BR-3
# Assay: as above
# Conditions: incubation time: 72 h
# Outline: as §1
row,SMILES,normalised response
1,Cc1c(C(=O)Nc2ccc(N3C[C@@H](C)O[C@@H](C)C3)nc2)cccc1-c1ccc(OC(F)(F)F)cc1 [Erismodegib] (1 nM),91.3%
2,Cc1c(C(=O)Nc2ccc(N3C[C@@H](C)O[C@@H](C)C3)nc2)cccc1-c1ccc(OC(F)(F)F)cc1 [Erismodegib] (10 nM),69.9%
3,CC(C)C(=O)Nc1ccc([N+](=O)[O-])c(C(F)(F)F)c1 [Flutamide] (10 nM),124%
4,COc1cc2c(Oc3ccc(NC(=O)C4(C(=O)Nc5ccc(F)cc5)CC4)cc3F)ccnc2cc1OCCCN1CCOCC1 [Foretinib] (1 nM),97.6%
5,COc1cc(Nc2ncc(F)c(Nc3ccc4c(n3)N(COP(=O)(O)O)C(=O)C(C)(C)O4)n2)cc(OC)c1OC [Fostamatinib] (0.25 nM),98%
6,COc1cc(Nc2ncc(F)c(Nc3ccc4c(n3)N(COP(=O)(O)O)C(=O)C(C)(C)O4)n2)cc(OC)c1OC [Fostamatinib] (2.5 nM),92.7%
7,CC(C)NC[C@@H](C(=O)N1CCN(c2ncnc3c2[C@H](C)C[C@H]3O)CC1)c1ccc(Cl)cc1 [GDC-0068] (1 nM),103%
8,CCCc1cc(C)[nH]c(=O)c1CNC(=O)c1cc(-c2ccnc(N3CCN(C)CC3)c2)cc2c1cnn2C(C)C [GSK343] (1 nM),91.9%
9,CCCc1cc(C)[nH]c(=O)c1CNC(=O)c1cc(-c2ccnc(N3CCN(C)CC3)c2)cc2c1cnn2C(C)C [GSK343] (10 nM),109%
10,NC(=O)NO [Hydroxyurea] (100 nM),93.5%
11,COc1cc2c(cc1-c1c(C)noc1C)ncc1[nH]c(=O)n([C@H](C)c3ccccn3)c12 [I-BET151] (1 nM),97.8%
12,CC(C)n1nc(-c2ccc3oc(N)nc3c2)c2c(N)ncnc21 [INK128] (0.1 nM),96%
13,CC(C)n1nc(-c2ccc3oc(N)nc3c2)c2c(N)ncnc21 [INK128] (1 nM),85.9%
14,O=NN(CCCl)C(=O)NC1CCCCC1 [Lomustine] (10 nM),90.8%
15,O=C(O)CC[C@H]1CC[C@@](c2cc(F)ccc2F)(S(=O)(=O)c2ccc(Cl)cc2)CC1 [MK-0752] (1 nM),102%
16,NC1(c2ccc(-c3nc4ccn5c(=O)[nH]nc5c4cc3-c3ccccc3)cc2)CCC1 [MK-2206] (1 nM),112%
17,NC(=O)c1cccc2cn(-c3ccc([C@@H]4CCCNC4)cc3)nc12 [MK-4827] (10 nM),83.4%
18,N[C@@H](Cc1ccc(N(CCCl)CCCl)cc1)C(=O)O [Melphalan] (1.25 nM),96.3%
19,N[C@@H](Cc1ccc(N(CCCl)CCCl)cc1)C(=O)O [Melphalan] (12.5 nM),95%
20,O=C(c1cc(Cc2n[nH]c(=O)c3ccccc23)ccc1F)N1CCN(C(=O)C2CC2)CC1 [Olaparib] (10 nM),100%

# System: BT-549
# Assay: as above
# Conditions: incubation time: 72 h
# Outline: as §1
row,SMILES,normalised response
1,Cc1c(C(=O)Nc2ccc(N3C[C@@H](C)O[C@@H](C)C3)nc2)cccc1-c1ccc(OC(F)(F)F)cc1 [Erismodegib] (1 nM),93.8%
2,Cc1c(C(=O)Nc2ccc(N3C[C@@H](C)O[C@@H](C)C3)nc2)cccc1-c1ccc(OC(F)(F)F)cc1 [Erismodegib] (10 nM),99.6%
3,CC(C)C(=O)Nc1ccc([N+](=O)[O-])c(C(F)(F)F)c1 [Flutamide] (10 nM),96.4%
4,COc1cc2c(Oc3ccc(NC(=O)C4(C(=O)Nc5ccc(F)cc5)CC4)cc3F)ccnc2cc1OCCCN1CCOCC1 [Foretinib] (1 nM),98.4%
5,COc1cc(Nc2ncc(F)c(Nc3ccc4c(n3)N(COP(=O)(O)O)C(=O)C(C)(C)O4)n2)cc(OC)c1OC [Fostamatinib] (0.25 nM),107%
6,COc1cc(Nc2ncc(F)c(Nc3ccc4c(n3)N(COP(=O)(O)O)C(=O)C(C)(C)O4)n2)cc(OC)c1OC [Fostamatinib] (2.5 nM),102%
7,CC(C)NC[C@@H](C(=O)N1CCN(c2ncnc3c2[C@H](C)C[C@H]3O)CC1)c1ccc(Cl)cc1 [GDC-0068] (1 nM),97.7%
8,CCCc1cc(C)[nH]c(=O)c1CNC(=O)c1cc(-c2ccnc(N3CCN(C)CC3)c2)cc2c1cnn2C(C)C [GSK343] (1 nM),100%
9,CCCc1cc(C)[nH]c(=O)c1CNC(=O)c1cc(-c2ccnc(N3CCN(C)CC3)c2)cc2c1cnn2C(C)C [GSK343] (10 nM),96.5%
10,NC(=O)NO [Hydroxyurea] (100 nM),97.7%
11,COc1cc2c(cc1-c1c(C)noc1C)ncc1[nH]c(=O)n([C@H](C)c3ccccn3)c12 [I-BET151] (1 nM),99.7%
12,CC(C)n1nc(-c2ccc3oc(N)nc3c2)c2c(N)ncnc21 [INK128] (0.1 nM),93.9%
13,CC(C)n1nc(-c2ccc3oc(N)nc3c2)c2c(N)ncnc21 [INK128] (1 nM),89%
14,O=NN(CCCl)C(=O)NC1CCCCC1 [Lomustine] (10 nM),98.3%
15,O=C(O)CC[C@H]1CC[C@@](c2cc(F)ccc2F)(S(=O)(=O)c2ccc(Cl)cc2)CC1 [MK-0752] (1 nM),93%

# Source: the supplement of paper PMC4862054
